Measurements from paper PMC11530130, “Peripherally restricted PICK1 inhibitor mPD5 ameliorates pain behaviors in murine inflammatory and neuropathic pain models” (JCI Insight, 2024).
Where “and” joins values, the source holds several entries; their conditions need not be identical. Identical values can stand only once.

Key:
[1] = molecular target: T1, recombinant full-length PICK1 (Rattus norvegicus, UniProt Q9EP80); assay: SEC of recombinant PICK1 in absence or presence of mPD5; type: binding; details: PICK1 40 μM with mPD5 10 μM; from 10.9 mL to 2 peaks at 8 mL and 9 mL
T1 construct: Full length rat PICK1 (pET41) was, as described earlier (1), expressed in BL21-DE3-pLysS; inferred from the pET41 vector and the glutathione-Sepharose capture) (N, cleaved yes); made in house; host or cells: E. coli BL21-DE3-pLysS
Protocol: SUPPORTING INFORMATION: Method Section.
Sex as a biological variable.
All peptides were ordered from WuXI AppTec (Shanghai, China) or TAG-Copenhagen […]
Assessment of solubility and stability of mPD5.
Solubility was determined by visual inspection of samples dissolved in increasing concentration in 10 mM PBS as judged by full transparency and monophasic appearance.
Stability was addressed by […] for four concentrations (2, 20, 50, and 200 µM), by leaving mPD5 in PBS at 5 °C and 25 °C for 30 days followed by HPLC-UV-MS.
Protein expression and purification.
Full length rat PICK1 (pET41) was, as described earlier (1), expressed in BL21-DE3-pLysS and grown at 37 °C, induced at OD600= 0.6 with 1 mM IPTG, and grown for 16 hours at 20 °C.
Cultures were harvested and re-suspended in 50 mM Tris, 125 mM NaCl, 2 mM DTT (Sigma), 1% Triton X-100 (Sigma), 20 µg/mL DNAse 1 and half a tablet of cOmplete protease inhibitor cocktail (Roche) pr. 1 L culture. The resuspended pellets were frozen at -80 °C for later purification. […] PICK1 was eluted on ice and concentration was measured on a NanoDrop 3000.
Fluorescence polarization binding. […]
binding surface 96 well plates (Sigma-Aldrich, Ref. no. 3686). The plates were incubated 20 min on ice and the fluorescence polarization was measured on an Omega POLARstar plate reader (BMG LABTECH) using excitation filter of 485 nm and long pass emission filter of 520 nm. […]

[2] = tested on: mice, CFA model of inflammatory pain; assay: CFA model of inflammatory pain, von Frey, i.t. administration; type: in vivo, mouse; details: CFA day 2, i.t. 20 μM, 7 μL
Protocol: Unless otherwise specified, wild type C57BL/6NRj mice (male and female, aged eight-weeks at the beginning of experiment) were used (Janvier, France). Animals were allowed at least seven days of habituation to the animal facility before initiation of experiment. Mice were group-housed in a temperature-controlled room, maintained on a 12/12hour light/dark cycle (lights on at 6 A.M) with free access to standard rodent chow (Altromin 1342 (Brogaarden, […]
Drug administration and dosing for animal experiments.
All compounds were diluted in PBS or saline (depending on control) and administered through different routes i.t. (7 μL/mouse)), i.p. (10 μL/g) or s.c. (10 μL/g)) as indicated. Doses of mPD5 were based on previous studies with TPD5 (6) with a subcutaneous dose-range included in the CFA studies further guiding dose selection for SNI, STZ and CIBP studies. Pregabalin dose was chosen based on previous experience from Phenotype Expertise (Marseilles, France). In the CIBP model, a dose of […] morphine was chosen to avoid hyperactivity, though known to provide only partial pain relief in this model. In remaining experiments, 5 mg/kg morphine was chosen, known to provide full pain relief, except for the conditioned place preference experiment, where 10 mg/kg was used instead in accordance with literature. […]

[3] = tested on: mice, CFA model of inflammatory pain; assay: CFA model, elevated plus maze; type: in vivo, mouse

T1 sequence (Q9EP80 whole entry): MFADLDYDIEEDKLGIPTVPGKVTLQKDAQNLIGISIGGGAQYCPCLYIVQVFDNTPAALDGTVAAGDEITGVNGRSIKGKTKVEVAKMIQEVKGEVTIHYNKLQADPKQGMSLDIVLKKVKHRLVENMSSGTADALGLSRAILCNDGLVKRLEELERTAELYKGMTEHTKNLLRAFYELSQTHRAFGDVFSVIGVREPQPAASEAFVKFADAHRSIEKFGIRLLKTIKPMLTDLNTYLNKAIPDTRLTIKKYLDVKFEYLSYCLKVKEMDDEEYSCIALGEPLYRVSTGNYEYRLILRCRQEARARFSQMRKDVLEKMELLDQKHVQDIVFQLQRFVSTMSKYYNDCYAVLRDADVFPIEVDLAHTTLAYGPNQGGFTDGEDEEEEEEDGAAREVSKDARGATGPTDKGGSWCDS

In the case of CCCCCCCCCCCCCC(=O)N(CCOCCOCCC(=O)N[C@@H](Cc1c[nH]cn1)C(=O)N[C@@H](Cc1c[nH]c2ccccc12)C(=O)N[C@@H](CC(C)C)C(=O)N[C@@H](CCCCN)C(=O)N[C@H](C(=O)O)C(C)C)CCOCCOCCC(=O)N[C@@H](Cc1c[nH]cn1)C(=O)N[C@@H](Cc1c[nH]c2ccccc12)C(=O)N[C@@H](CC(C)C)C(=O)N[C@@H](CCCCN)C(=O)N[C@H](C(=O)O)C(C)C [mPD5, myristoyl-NPEG4-(HWLKV)2], the “shift of PICK1 SEC elution (higher-order complexes)” value [1] is reported as “distinct shift in the peak elution volume of PICK1”, the “effect on mechanical hypersensitivity (PWT)” value ([2]; 1 hour and 5 hours after administration) is reported as “significant relief of mechanical hypersensitivity” and the “effect on mechanical hypersensitivity (PWT)” value ([2]; 24 hours after administration) is reported as “no effect”. The “time spent in open arms relative to sham, individual mice” value ([3]; 1 hour after s.c. 10 μmol/kg) was 105.738 and 52.6613 and 140.768 and 68.9703 and 55.3027 and 160.227 and 143.859 and 0 and 156.14 and 28.0701 and 63.1578 and the “time spent in the open arms of the elevated plus maze” value ([3]; s.c. 10 μmol/kg) was “no longer significantly different from the naive mice”.
